Experimental data: patent US12552772B2, “2-pyrazole anilines and related analogs for inhibiting YAP/TAZ-TEAD” (KATHOLIEKE UNIVERSITEIT LEUVEN, priority 2021, dated 2026)

System: YAP/TAZ-TEAD transcription
Test: Reporter gene assay for measuring the inhibition of YAP/TAZ-TEAD transcription (TEAD-responsive element luciferase reporter in Hek293T cells)
Type: cell-based
Details: Homo sapiens, HEK-293T, 24 hours incubation
Protocol: Hek293T cells are cultured in DMEM supplemented with 10% fetal bovine serum, Sodium pyruvate, Sodium bicarbonate, L-glutamine. The cells are harvested and transiently transfected with TEAD-responsive element luciferase reporter. Transfected cells are plated in 384-wells plate containing pre-diluted compounds. After 24 hours incubation at 37° C./5% CO2, assay plates were cooled down to RT and levelled to an equal volume per well, prior to the addition of 25 uL luciferase substrate SteadyLite (Perkin Elmer)/well. The plate was shaken for 10 min at 600 rpm, centrifuged for 1 min at 500 rpm and measured with an Envision reader (PerkinElmer). The amount of relative light units produced by the TEAD reporter is used to calculated percent of inhibition.
The percent of reporter inhibition was calculated in the presence of a positive control inhibitor (100% inhibition) versus a condition with the presence of the vehicle basal activity of the reporter (0% inhibition). The ability of a test compound to inhibit this activity was determined as: Percentage inhibition=[1−((RLU determined in the presence of vehicle−RLU determined for sample with test compound present) divided by (RLU determined in the presence of vehicle−RLU determined for sample with positive control inhibitor))]*100
The activities of the example compounds tested are depicted in the table below. The activity ranges A, B and C refer to EC50 values in the reporter gene assay as described as follows: “A”: EC50<1 μM; “B”: 1 μM s EC50≤20 μM and “C”: EC50>20 μM, NT=not tested.

Row | Structure (SMILES) | EC50
1 | CNS(=O)(=O)CCNc1ccc(C2CCCCC2)cc1-c1ccn(Cc2cccnc2)n1 [compound 095, 2-((4-cyclohexyl-2-(1-(pyridin-3-ylmethyl)-1H-pyrazol-3-yl)phenyl)amino)-N-methylethane-1-sulfonamide] | < 1000 nM
2 | CNS(=O)(=O)CCNc1ccc(-c2cccc(Cl)c2)cc1-c1ccn(C)n1 [compound 122, 2-((3′-chloro-3-(1-methyl-1H-pyrazol-3-yl)-[1,1′-biphenyl]-4-yl)amino)-N-methylethane-1-sulfonamide] | < 1000 nM
3 | CNS(=O)(=O)CCNc1ccc(-c2cc(F)cc(F)c2)cc1-c1ccn(C)n1 [compound 126, 2-((3′,5′-difluoro-3-(1-methyl-1H-pyrazol-3-yl)-[1,1′-biphenyl]-4-yl)amino)-N-methylethane-1-sulfonamide] | < 1000 nM
4 | CNS(=O)(=O)CCNc1ccc(Nc2ccccc2)cc1-c1ccn(Cc2cccnc2)n1 [compound 116, N-methyl-2-((4-(phenylamino)-2-(1-(pyridin-3-ylmethyl)-1H-pyrazol-3-yl)phenyl)amino)ethane-1-sulfonamide] | < 1000 nM
5 | NC(=O)c1cncc(Cn2ccc(-c3cccc(-c4ccccc4)c3)n2)c1 [compound 041, 5-((3-([1,1′-biphenyl]-3-yl)-1H-pyrazol-1-yl)methyl)nicotinamide] | 1000 to 20000 nM
6 | C=CC(=O)NCc1cnc(-c2ccc(C(F)(F)F)cc2)cc1-c1ccn(C(F)F)n1 [compound 209, N-((4-(1-(difluoromethyl)-1H-pyrazol-3-yl)-6-(4-(trifluoromethyl)phenyl)pyridin-3-yl)methyl)acrylamide] | < 1000 nM
7 | CCC(=O)NCc1cc(-c2ccc(F)cc2)cc(-c2ccn(C(F)F)n2)n1 [compound 226, N-((6-(1-(difluoromethyl)-1H-pyrazol-3-yl)-4-(4-fluorophenyl)pyridin-2-yl)methyl)propionamide] | < 1000 nM
8 | Cn1ccc(-c2ccc(NCCS(=O)(=O)O)c(-c3ccn(Cc4cccnc4)n3)c2)n1 [compound 109, 2-((4-(1-methyl-1H-pyrazol-3-yl)-2-(1-(pyridin-3-ylmethyl)-1H-pyrazol-3-yl)phenyl)amino)ethane-1-sulfonic acid] | > 20000 nM
9 | CCC(=O)NCc1cnc(-c2cccc(F)c2)cc1-c1ccn(C(F)F)n1 [compound 212, N-((4-(1-(difluoromethyl)-1H-pyrazol-3-yl)-6-(3-fluorophenyl)pyridin-3-yl)methyl)propionamide] | 1000 to 20000 nM
10 | C=CC(=O)NCc1cc(-c2ccccc2)cc(-c2ccn(Cc3cccnc3)n2)c1 [compound 139, N-((5-(1-(pyridin-3-ylmethyl)-1H-pyrazol-3-yl)-[1,1′-biphenyl]-3-yl)methyl)acrylamide] | < 1000 nM
11 | C=CC(=O)Nc1cncc(-c2cccc(-c3ccn(C)n3)c2)c1 [compound 013, N-(5-(3-(1-methyl-1H-pyrazol-3-yl)phenyl)pyridin-3-yl)acrylamide] | 1000 to 20000 nM
12 | CNS(=O)(=O)CCNc1ccc(-c2cccc(OC)c2)cc1-c1ccn(Cc2cccnc2)n1 [compound 090, 2-((3′-methoxy-3-(1-(pyridin-3-ylmethyl)-1H-pyrazol-3-yl)-[1,1′-biphenyl]-4-yl)amino)-N-methylethane-1-sulfonamide] | < 1000 nM
13 | O=C(O)CNc1cc(-c2ccccc2)cc(-c2ccn(Cc3cccnc3)n2)c1 [compound 078, (5-(1-(pyridin-3-ylmethyl)-1H-pyrazol-3-yl)-[1,1′-biphenyl]-3-yl)glycine] | > 20000 nM
14 | c1ccc(Nc2cccc(-c3ccn(CCc4cccnc4)n3)c2)cc1 [compound 046, N-phenyl-3-(1-(2-(pyridin-3-yl)ethyl)-1H-pyrazol-3-yl)aniline] | 1000 to 20000 nM
15 | CNS(=O)(=O)CCNc1ccc(-c2cccc(Cl)c2)cc1-c1ccn(Cc2cccnc2)n1 [compound 091, 2-((3′-chloro-3-(1-(pyridin-3-ylmethyl)-1H-pyrazol-3-yl)-[1,1′-biphenyl]-4-yl)amino)-N-methylethane-1-sulfonamide] | < 1000 nM
16 | Fc1cccc(Cn2ccc(-c3cccc(-c4ccccc4)c3)n2)c1 [compound 018, 3-([1,1′-biphenyl]-3-yl)-1-(3-fluorobenzyl)-1H-pyrazole] | 1000 to 20000 nM
17 | C=CC(=O)NCc1ccc(-c2ccc(C(F)(F)F)cc2)cc1-c1cnn(C(F)F)c1 [compound 173, N-((3-(1-(difluoromethyl)-1H-pyrazol-4-yl)-4′-(trifluoromethyl)-[1,1′-biphenyl]-4-yl)methyl)acrylamide] | < 1000 nM
18 | C=CC(=O)NCc1ccc(-c2ccc(F)cc2)cc1-c1ccn(CCO)n1 [compound 151, N-((4′-fluoro-3-(1-(2-hydroxyethyl)-1H-pyrazol-3-yl)-[1,1′-biphenyl]-4-yl)methyl)acrylamide] | < 1000 nM

Row | Structure (SMILES) | EC50
19 | O=C1CCN1c1ccc(Cn2ccc(-c3cccc(-c4ccccc4)c3)n2)cn1 [compound 038, 1-(5-((3-([1,1′-biphenyl]-3-yl)-1H-pyrazol-1-yl)methyl)pyridin-2-yl)azetidin-2-one] | > 20000 nM
20 | C=CC(=O)NCc1cnc(-c2ccc(F)cc2)cc1-c1cnn(C(F)F)c1 [Cpd. No. 224, N-((4-(1-(difluoromethyl)-1H-pyrazol-4-yl)-6-(4-fluorophenyl)pyridin-3-yl)methyl)acrylamide] | 1000 to 20000 nM
21 | CNS(=O)(=O)CCNc1ccc(-c2ccc(C(F)(F)F)cc2)nc1-c1ccn(C(F)F)n1 [compound 134, 2-((2-(1-(difluoromethyl)-1H-pyrazol-3-yl)-6-(4-(trifluoromethyl)phenyl)pyridin-3-yl)amino)-N-methylethane-1-sulfonamide] | < 1000 nM
22 | c1ccc(-c2cccc(-c3ccn(CC4CCOCC4)n3)c2)cc1 [compound 026, 3-([1,1′-biphenyl]-3-yl)-1-((tetrahydro-2H-pyran-4-yl)methyl)-1H-pyrazole] | > 20000 nM
23 | Cn1ccc(-c2cc(-c3ccccc3)ccc2NCCS(=O)(=O)O)n1 [compound 057, 2-((3-(1-methyl-1H-pyrazol-3-yl)-[1,1′-biphenyl]-4-yl)amino)ethane-1-sulfonic acid] | > 20000 nM
24 | CNS(=O)(=O)CCNc1ccc(-c2ccccc2)cc1-c1ccn(Cc2cccnc2)n1 [compound 050, N-methyl-2-((3-(1-(pyridin-3-ylmethyl)-1H-pyrazol-3-yl)-[1,1′-biphenyl]-4-yl)amino)ethane-1-sulfonamide] | < 1000 nM
25 | C=CC(=O)NCc1ccc(-c2ccc(F)cc2)nc1-c1ccn(C2CC2)n1 [compound 196, N-((2-(1-cyclopropyl-1H-pyrazol-3-yl)-6-(4-fluorophenyl)pyridin-3-yl)methyl)acrylamide] | < 1000 nM
26 | C=CC(=O)NCc1cnc(-c2ccc(F)cc2)cc1-n1cccn1 [Cpd. No. 239, N-((6-(4-fluorophenyl)-4-(1H-pyrazol-1-yl)pyridin-3-yl)methyl)acrylamide] | < 1000 nM
27 | CNS(=O)(=O)CCNc1ccc(-c2ccc(S(F)(F)(F)(F)F)cc2)cc1-c1ccn(Cc2cccnc2)n1 [compound 100, 2-((4′-(2,2-difluoro-2-methyl-2l6-trifluoran-2-yl)-3-(1-(pyridin-3-ylmethyl)-1H-pyrazol-3-yl)-[1,1′-biphenyl]-4-yl)amino)-N-methylethane-1-sulfonamide] | < 1000 nM
28 | O=S(=O)(O)CCNc1ccc(-c2ccc(Cl)cc2)cc1-c1ccn(Cc2cccnc2)n1 [compound 107, 2-((4′-chloro-3-(1-(pyridin-3-ylmethyl)-1H-pyrazol-3-yl)-[1,1′-biphenyl]-4-yl)amino)ethane-1-sulfonic acid] | > 20000 nM
29 | C=Cc1cc(Cn2ccc(-c3cccc(-c4ccccc4)c3)n2)ccn1 [compound 035, 4-((3-([1,1′-biphenyl]-3-yl)-1H-pyrazol-1-yl)methyl)-2-vinylpyridine] | 1000 to 20000 nM
30 | N#CCCNc1ccc(-c2ccccc2)cc1-c1ccn(Cc2cccnc2)n1 [compound 084, 3-((3-(1-(pyridin-3-ylmethyl)-1H-pyrazol-3-yl)-[1,1′-biphenyl]-4-yl)amino)propanenitrile] | 1000 to 20000 nM
31 | O=C1CC(Nc2ccc(-c3ccccc3)cc2-c2ccn(Cc3cccnc3)n2)CCN1 (centres unmarked) [compound 072, 4-((3-(1-(pyridin-3-ylmethyl)-1H-pyrazol-3-yl)-[1,1′-biphenyl]-4-yl)amino)piperidin-2-one] | 1000 to 20000 nM
32 | CNS(=O)(=O)N1CCC(c2cnc(-c3ccc(F)cc3)cc2-c2ccn(C(F)F)n2)C1 (centres unmarked) [compound 263, 3-(4-(1-(difluoromethyl)-1H-pyrazol-3-yl)-6-(4-fluorophenyl)pyridin-3-yl)-N-methylpyrrolidine-1-sulfonamide] | > 20000 nM
33 | CN(C)C/C=C/C(=O)NCc1cnc(-c2ccc(F)cc2)cc1-c1ccn(C(F)F)n1 [compound 208, (E)-N-((4-(1-(difluoromethyl)-1H-pyrazol-3-yl)-6-(4-fluorophenyl)pyridin-3-yl)methyl)-4-(dimethylamino)but-2-enamide] | > 20000 nM
34 | C=CC(=O)NCc1cc(-c2ccn(C(F)F)n2)cc(-c2ccc(F)cc2)n1 [compound 218, N-((4-(1-(difluoromethyl)-1H-pyrazol-3-yl)-6-(4-fluorophenyl)pyridin-2-yl)methyl)acrylamide] | < 1000 nM
35 | C=CC(=O)Nc1ccccc1-c1cccc(-c2ccn(Cc3ccccc3)n2)c1 [compound 008, N-(3′-(1-benzyl-1H-pyrazol-3-yl)-[1,1′-biphenyl]-2-yl)acrylamide] | 1000 to 20000 nM
